The target of series [1] is T1, Mu-type opioid receptor (Mus musculus, UniProt P42866). The series is described as follows: Partial agonist activity at mouse mu opioid receptor expressed in CHO cell membranes incubated for 1.5 hrs by [35S]GTPgammaS binding based liquid scintillation counting method. Background: GTPγS resists hydrolysis and so accumulates on activated G proteins.
The target in series [2] is T2, Delta-type opioid receptor (Homo sapiens, UniProt P41143).
Description: Displacement of [3H]-diprenorphine from human delta opioid receptor expressed in CHO cell membranes assessed as inhibition constant incubated for 1.5 hrs by competitive binding assay
For series [3], the system named is Mus musculus. The series is described as follows: Antinociceptive activity against Swiss Webster mouse model assessed as increase in tail withdrawal latency from warm water at 10 mg/kg, sc incubated for 5 mins followed by morphine addition and measured after 20 mins by warm water tail immersion assay. It counts as functional, organism-based.
The target in series [4] is T2, Delta-type opioid receptor. The series is described as follows: biochemical.
Description: Antagonist activity against human delta opioid receptor expressed in CHO cell membrane assessed as reduction in SNC80 induced [35S]GTPgammaS binding incubated for 1.5 hrs by liquid scintillation counting method
The target in series [5] is T1, Mu-type opioid receptor.
Series [6] deals with T3, Kappa-type opioid receptor (Mus musculus, UniProt P33534).
T3 sequence (P33534 whole entry): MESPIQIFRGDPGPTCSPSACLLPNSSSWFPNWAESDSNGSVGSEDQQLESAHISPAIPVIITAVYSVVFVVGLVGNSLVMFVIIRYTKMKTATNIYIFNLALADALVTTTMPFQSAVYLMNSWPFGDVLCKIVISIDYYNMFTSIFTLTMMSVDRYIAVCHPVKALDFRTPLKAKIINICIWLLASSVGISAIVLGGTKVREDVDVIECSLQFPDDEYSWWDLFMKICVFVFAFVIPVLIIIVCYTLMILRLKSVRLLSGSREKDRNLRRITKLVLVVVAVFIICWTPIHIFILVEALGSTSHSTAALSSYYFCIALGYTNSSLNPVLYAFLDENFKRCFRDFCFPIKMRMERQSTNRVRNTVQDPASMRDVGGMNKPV
Description: Displacement of [3H]-diprenorphine from mouse kappa opioid receptor expressed in CHO cell membranes assessed as inhibition constant incubated for 1.5 hrs by competitive binding assay
For series [7], the target named is T3, Kappa-type opioid receptor. The series is described as follows: biochemical.
Description: Antagonist activity at mouse kappa opioid receptor expressed in CHO cell membranes assessed as reduction in U50,488H induced [35S]GTPgammaS binding incubated for 1.5 hrs by liquid scintillation counting method
Series [8] deals with Mus musculus. The series is described as follows: Antinociceptive activity against Swiss Webster mouse model assessed as increase in tail withdrawal latency from warm water by measuring maximum possible effect at 10 mg/kg, sc measured after 20 min by warm water tail immersion assay. In kind it is functional, organism-based.
A short description of series [9]: Solubility of the compound in DMSO. It counts as physicochemical.
The subject of series [10] is Mus musculus. The series is described as follows: Anti-addiction activity in morphine pelleted Swiss Webster mouse assessed as paw tremors at 5 mg/kg, sc measured after 72 hrs. It counts as functional, organism-based.
For series [11], the system named is Mus musculus. The series is described as follows: Anti-addiction activity in morphine pelleted Swiss Webster mouse assessed as escape jumps at 5 mg/kg, sc measured after 72 hrs. It counts as functional, organism-based.
For series [12], the system named is Mus musculus. The series is described as follows: Anti-addiction activity in morphine pelleted Swiss Webster mouse assessed as wet dog shakes at 5 mg/kg, sc measured after 72 hrs. In kind it is functional, organism-based.

Active and inactive are the calls of the source. The rule behind the calls is not given here.

T1 sequence (P42866 whole entry): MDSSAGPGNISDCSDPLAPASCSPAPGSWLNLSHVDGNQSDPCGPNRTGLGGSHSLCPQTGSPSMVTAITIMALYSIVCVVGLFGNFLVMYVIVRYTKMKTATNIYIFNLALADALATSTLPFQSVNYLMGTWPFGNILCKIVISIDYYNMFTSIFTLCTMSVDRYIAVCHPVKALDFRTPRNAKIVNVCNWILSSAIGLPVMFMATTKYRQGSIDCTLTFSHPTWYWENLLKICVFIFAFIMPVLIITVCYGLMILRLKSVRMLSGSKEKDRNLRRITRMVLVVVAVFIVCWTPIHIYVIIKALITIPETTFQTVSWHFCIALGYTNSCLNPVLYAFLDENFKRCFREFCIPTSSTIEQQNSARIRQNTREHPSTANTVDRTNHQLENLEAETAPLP
T2 sequence (P41143 whole entry): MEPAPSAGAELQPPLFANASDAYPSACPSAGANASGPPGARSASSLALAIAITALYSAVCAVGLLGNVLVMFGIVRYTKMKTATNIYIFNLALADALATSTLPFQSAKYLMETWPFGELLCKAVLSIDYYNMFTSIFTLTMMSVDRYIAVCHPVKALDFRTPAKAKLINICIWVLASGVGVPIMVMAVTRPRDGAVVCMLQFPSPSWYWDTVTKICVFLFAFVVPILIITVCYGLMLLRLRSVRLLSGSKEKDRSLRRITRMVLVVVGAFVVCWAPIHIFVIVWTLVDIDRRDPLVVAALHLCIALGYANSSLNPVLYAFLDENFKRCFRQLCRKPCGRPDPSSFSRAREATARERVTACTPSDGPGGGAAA

Consider `O=C(Cc1ccco1)N[C@H]1CC[C@@]2(O)[C@H]3Cc4ccc(O)c5c4[C@@]2(CCN3CC2CC2)[C@H]1O5`, for which the EC50 (usually the concentration giving half of the maximal effect) came to 2.74 nM at Mu-type opioid receptor [1], 6.2 nM in series [4] and 85.4 nM in series [7]. Moreover, the values for the Ki (in series [2]; on Mu-type opioid receptor [5]; in series [6]) were 4.61 nM, 0.59 nM and 6.67 nM, respectively. Besides, the outcome with Mus musculus [3] was Active. For the same molecule, in the series on Mus musculus [8], the result was inactive.
For the molecule `O=C(CCc1cc[nH]c1)N[C@H]1CC[C@@]2(O)[C@H]3Cc4ccc(O)c5c4[C@@]2(CCN3CC2CC2)[C@H]1O5`, the midpoint of the response on Mu-type opioid receptor [1], the EC50, lay at 3.86 nM. In addition, the values for the Ki (in series [2]; at Mu-type opioid receptor [5]; in series [6]) were 8.62 nM, 0.7 nM and 0.59 nM, respectively. The result in the series on Mus musculus [3] was Active. Also, the solubility result in series [9] is on record as “Insoluble”. The result in the series with Mus musculus [8] was inactive.
With `O=C(Cc1ccco1)N[C@@H]1CC[C@@]2(O)[C@H]3Cc4ccc(O)c5c4[C@@]2(CCN3CC2CC2)[C@H]1O5`, the EC50 turned out to be 0.97 nM on Mu-type opioid receptor [1], 42.3 nM in [4] and 13.3 nM in series [7]. Also, the Ki – broadly, a measure of affinity in units of concentration, obtained from inhibition or displacement – amounted to 45.6 nM in [2], 0.23 nM on Mu-type opioid receptor [5] and 3.38 nM in series [6]. The result with Mus musculus [3] was Active. For the same molecule, the result in the series on Mus musculus [8] was inactive.
As to `O=C(N[C@H]1CC[C@@]2(O)[C@H]3Cc4ccc(O)c5c4[C@@]2(CCN3CC2CC2)[C@H]1O5)c1cccs1`, the outcome in the series with Mus musculus [10], in the series with Mus musculus [3], in the series on Mus musculus [11] and in the series with Mus musculus [12] was Active. Besides, the outcome with Mus musculus [8] was inactive.
Consider `O=C(Cc1ccc[nH]1)N[C@H]1CC[C@@]2(O)[C@H]3Cc4ccc(O)c5c4[C@@]2(CCN3CC2CC2)[C@H]1O5`, for which, at Mu-type opioid receptor [1], the half-maximal effective concentration (EC50) came to 4.18 nM. In addition, the inhibition constant Ki in [2] amounted to 3.85 nM; at Mu-type opioid receptor [5] it was 0.46 nM; in series [6], 2.88 nM. The outcome in the series on Mus musculus [3] and in the series on Mus musculus [8] was inactive.
Turning to `O=C(N[C@@H]1CC[C@@]2(O)[C@H]3Cc4ccc(O)c5c4[C@@]2(CCN3CC2CC2)[C@H]1O5)c1ccco1`, the EC50 is 0.98 nM on Mu-type opioid receptor [1], 35.5 nM in [4] and 6.3 nM in series [7]. In addition, the Ki in series [2] was 84.7 nM; at Mu-type opioid receptor [5], 0.3 nM; in series [6], 1.29 nM. In addition, the result in the series on Mus musculus [3] was Active. Further, the outcome with Mus musculus [8] was inactive.
Turning to `O=C(Cc1ccsc1)N[C@H]1CC[C@@]2(O)[C@H]3Cc4ccc(O)c5c4[C@@]2(CCN3CC2CC2)[C@H]1O5`, at Mu-type opioid receptor [1], the EC50 is 1.21 nM. Besides, the Ki in series [2] is 39.4 nM; on Mu-type opioid receptor [5], 0.23 nM; in [6], 0.65 nM. Further, the outcome in the series on Mus musculus [3] and in the series with Mus musculus [8] was inactive.
`O=C(Cc1ccsc1)N[C@@H]1CC[C@@]2(O)[C@H]3Cc4ccc(O)c5c4[C@@]2(CCN3CC2CC2)[C@H]1O5` came in with an EC50 at Mu-type opioid receptor [1] of 3.24 nM. Besides, the Ki in [2] came to 36.1 nM; on Mu-type opioid receptor [5] it was 0.2 nM; in series [6], 1.31 nM. Moreover, the outcome with Mus musculus [3] and in the series on Mus musculus [8] was inactive.
Take `O=C(N[C@H]1CC[C@@]2(O)[C@H]3Cc4ccc(O)c5c4[C@@]2(CCN3CC2CC2)[C@H]1O5)c1ccsc1`: the result in the series with Mus musculus [3], with Mus musculus [11] and with Mus musculus [12] was Active. In the series with Mus musculus [8], the result was inactive.
`O=C(CCc1ccc[nH]1)N[C@H]1CC[C@@]2(O)[C@H]3Cc4ccc(O)c5c4[C@@]2(CCN3CC2CC2)[C@H]1O5` registered an EC50 at Mu-type opioid receptor [1] of 3.79 nM. In addition, the Ki in series [2] turned out to be 7.58 nM; at Mu-type opioid receptor [5] it was 0.58 nM; in series [6] it was 0.54 nM. The outcome in the series on Mus musculus [3] and in the series on Mus musculus [8] was inactive.

(Values after ChEMBL document CHEMBL5046295 (J Med Chem, 2022).)
